Results published in article PMC6054081, “De novo design of isopeptide bond-tethered triple-stranded coiled coils with exceptional resistance to unfolding and proteolysis: implication for developing antiviral therapeutics” (Chemical Science, 2015).
Bridge positions count the residues as written; N and C are the ends. Peptide text beside a SMILES is read from it. I, II: the chains in the order shown.

Key:
[1] = CD spectroscopy, α-helicity; assay type: physicochemical; details: CD in PBS, pH 7.4, final peptide concentration 10 μM, pre-incubated 37 °C 0.5 h
Procedure: (§1) Lyophilized peptides were resuspended in ddH2O (pH 7.0) at a concentration of approximately 1 mg mL^–1. […] The peptides were incubated in a water bath set at 37 °C for 0.5 h before testing. CD spectra were acquired on an MOS-450 system (BioLogic, Claix, France) using the following parameters: band width, 4.0 nm; resolution, 0.1 nm; path length, 0.1 cm; response time, 4.0 s; and scanning speed, 50 nm min^–1. For CD thermal denaturation analysis, the temperature was controlled by a BioLogic TCU250 system, and CD spectra were monitored at 222 nm from 10 °C to 90 °C at a scan speed of 2 °C min^–1.
(§2) Table S1. Biophysical properties of the designed peptides a
(§3) a CD spectra of each designed peptide were monitored in PBS, pH 7.4. The final peptide concentration was 10 μM. […]

[2] = CD thermal denaturation (Tm); assay type: physicochemical; details: CD at 222 nm, 10 °C to 90 °C at 2 °C min–1, PBS pH 7.4, 10 μM peptide
Procedure: as §1
The samples were incubated at room temperature for 3 h before their full-range CD spectra or the ellipticities at 222 nm were recorded. For thermal denaturation studies, the stock peptide solutions were diluted with appropriate volumes of buffer and guanidine hydrochloride. Thermal denaturation was performed by monitoring the ellipticity change at 222 nm from 10 °C to 90 °C at a rate of 2 °C min^–1.
as §2, §3
(§4) Table S2. Sequences of designed peptides a
(§5) a The Glu residues with a thioester side chain are underlined. Isopeptide bonds are formed between Lys-9 and Glu-14 (in […]

[3] = Sedimentation velocity analysis (SVA), oligomerization state; assay type: physicochemical; details: 150 μM in PBS (pH 7.4), 60,000 rpm, 20 °C, 280 nm; for Sedimentation coefficient: SEDFIT; for Observed molecular mass (kDa) by sedimentation analysis: SEDFIT c(M)
Procedure: All measurements were performed on a ProteomelabTMXL-A/XL-I analytical ultracentrifuge (Beckman Coulter, Fullerton, CA, USA) at 20 °C, as described previously. In brief, three-channel cells were used with an An-60 Tirotor. Lyophilized peptides were resuspended in ddH2O (pH 7.0) at approximately 1 mg mL^–1. The individual proteins were prepared in PBS and incubated at 37 °C for 30 min. All samples were prepared at a final concentration of 150 μM and were initially scanned at 3000 rpm for 10 min to identify the appropriate wavelength for data collection. Data were collected at 60 000 rpm at a wavelength of 280 nm. Sedimentation coefficient distribution, c(s), and molecular mass distribution, c(M), were calculated using the SEDFIT program.
Table S1. […]
Sedimentation equilibrium studies were performed at a concentration of 150 μM in PBS (pH 7.4) and a rotor speed of
60,000 rpm at 20 °C. b The theoretical molecular mass for the HR peptides in the monomeric conformation.
as §4, §5

[4] = Chemical denaturation by Gdn·HCl followed by CD at 222 nm; assay type: physicochemical; details: 7 M Gdn·HCl in PBS pH 7.4, 3 h at room temperature, CD 222 nm (Fig. 3C)
Procedure: For thermal denaturation studies, the stock peptide solutions were diluted with appropriate volumes of buffer and guanidine hydrochloride.

[5] = system: HIV-1 Env-mediated cell–cell fusion; details: read-out: EC50 (nM) for inhibiting cell–cell fusion; HL2/3 and TZM-bl cells coincubated 6–8 h at 37 °C, luciferase read-out; triplicate, mean ± standard deviation
Procedure: Cell–cell fusion assays were performed as described previously.[26] HL2/3 cells, which stably express HIV Gag, Env, Tat, Rev, and Nef proteins, as well as TZM-bl cells, which stably express large amounts of CD4 and CCR5, were obtained from the NIH AIDS Reference and Reagent Program (contributed by Drs Barbara Felber and George Pavlakis and Drs John C. Kappes and Xiaoyun Wu, respectively). TZM-bl cells (2.5 × 10^4 per well) and HL2/3 cells (7.5 × 10^4 per well) were coincubated in 96-well plates (Corning Costar) at 37 °C in 5% CO2 in the presence of different concentrations of inhibitors. After incubation for 6–8 h, the medium was aspirated, the cells were washed and lysed, and luciferase activity was measured using the Luciferase Assay System (Promega, Madison, WI) on a SpectraMax M5 plate reader (Molecular Devices, Sunnyvale, CA).

[6] = system: HIV-1IIIB; experiment: HIV-1IIIB infection assay (MT-2 cells, p24 ELISA); assay type: cell-based; details: 100 TCID50, p24 ELISA on fourth day post-infection, triplicate, mean ± standard deviation, read-out: EC50 (nM) for inhibiting HIV–1IIIB infection
Text: (§6) To measure the inhibitory activity of the peptides on infection of HIV-1IIIB and HIV-1BaL, 1 × 10^4 MT-2 cells and TZM-b1 cells, respectively, were infected with 100 times the median tissue culture infective dose of a virus in the presence or absence of the peptides at graded concentrations. On the fourth day post-infection, the culture supernatants were collected for detection of p24 antigen using an enzyme-linked immunosorbent assay (ELISA). The percent inhibition by the peptides and EC50 values was calculated using Calcusyn software.[27]

[7] = system: HIV-1BaL; experiment: HIV-1BaL infection assay (TZM-b1 cells, p24 ELISA); assay type: cell-based; details: 100 TCID50, p24 ELISA on fourth day post-infection, triplicate, mean ± standard deviation, read-out: EC50 (nM) for inhibiting HIV-1BaL infection
Text: as §6

[8] = target: proteinase K (Parengyodontium album, UniProt P06873); details: 20 ng/mL proteinase K in PBS, peptide 10 μg/mL, LC-MS/MS (SIM) (Fig. 4A)
Chain of proteinase K (P06873 106-384): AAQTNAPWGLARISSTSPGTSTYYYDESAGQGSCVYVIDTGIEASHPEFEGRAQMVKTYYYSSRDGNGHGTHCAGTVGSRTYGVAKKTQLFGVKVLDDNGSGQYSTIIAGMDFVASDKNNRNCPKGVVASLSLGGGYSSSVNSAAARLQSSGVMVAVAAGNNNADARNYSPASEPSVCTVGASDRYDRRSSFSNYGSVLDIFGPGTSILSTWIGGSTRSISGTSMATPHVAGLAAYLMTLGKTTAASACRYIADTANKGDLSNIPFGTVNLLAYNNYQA
Procedure: (§7) Qualification assay. Chromatographic analyses were performed using an ODS-C8 column (5 μm, 100 mm × 2.0mm ID) kept at ambient temperature. The mobile phase was composed of acetonitrile-water-formic acid in the ratio of 60:40:0.1 (v/v/v) at a flow rate of 0.3 mL/min. The sample injection volume was 10 μL. Acetonitrile was HPLC grade, and other chemical reagents and solvents were analytical grade. A Thermo TSQ Quantum Discovery MAX triple–quadruple tandem mass spectrometer equipped with ESI source (San Jose, CA) and Surveyor LC pump were used for LC-MS/MS analysis. Data acquisition and data processing were performed by using Xcalibur software and LCQuan 2.0 data analysis program (Thermo Finnigan), respectively. Optimized MS parameters were as below: 4800 V spray voltage, 10.0 psi sheath gas pressure, 1.0 psi auxiliary valve flow, and 300 °C of capillary temperature. When running collision-induced dissociation (CID), the pressure was set to 1.5 mTorr. The selected ion monitoring (SIM) mode was preformed for T20
(§8) Preparation of Samples. By use of a simple protein precipitation method, a test compound was extracted from liver
(§9) homogenate and 20 ng/mL proteinase K in PBS, respectively. Samples for standard curves were prepared by spiking 50
(§10) μL of rat liver homogenate or 20 ng/mL proteinase K with 100 μL of various concentrations of each test compound
(§11) ranging from 0.1－5 μg/mL in ethanol. […]

[9] = rat (Sprague-Dawley, three pooled) liver homogenate, 4 mL Tris–HCl 50 mM pH 7.4 per g, 9,000g supernatant, peptide 10 μg/mL, LC-MS/MS (SIM) (Fig. 4B)
Procedure: as §7, §8, §9, §10, §11

Compound	Helicity (%) [1] [%]	Tm (°C) [2]	Sedimentation coefficient [3] [s]	Observed molecular mass (kDa) by sedimentation analysis [3] [kDa]	[θ]G/[θ]0 ([θ]222 with Gdn·HCl vs. without) / resistance to Gdn·HCl unfolding [4]	EC50 [5] [nM]	EC50 [6] [nM]	EC50 [7] [nM]	proteolytic stability in proteinase K, compared with T20 [8]	proteolytic stability in liver homogenate, compared with T20 [9]
CC[C@H](C)[C@H](NC(=O)[C@H](CCC(N)=O)NC(=O)[C@H](CCC(N)=O)NC(=O)[C@@H](NC(=O)[C@H](CCCNC(=N)N)NC(=O)[C@H](CCC(N)=O)NC(=O)[C@H](CCC(=O)O)NC(=O)[C@@H](NC(=O)[C@H](CCC(N)=O)NC(=O)[C@H](CCC(N)=O)NC(=O)[C@@H](NC(=O)[C@H](CCCNC(=N)N)NC(=O)[C@H](CCC(N)=O)NC(=O)[C@H](CCC(=O)O)NC(=O)[C@@H](NC(=O)[C@H](Cc1c[nH]cn1)NC(=O)[C@H](Cc1c[nH]cn1)NC(=O)[C@@H](NC(=O)[C@H](CCCCN)NC(=O)[C@H](CCC(N)=O)NC(=O)[C@H](CCC(=O)O)NC(=O)[C@@H](NC(=O)[C@H](CCC(N)=O)NC(=O)[C@H](CCC(N)=O)NC(=O)[C@@H](NC(=O)[C@H](CCCNC(=N)N)NC(=O)[C@H](Cc1c[nH]c2ccccc12)NC(C)=O)[C@@H](C)CC)[C@@H](C)CC)[C@@H](C)CC)[C@@H](C)CC)[C@@H](C)CC)[C@@H](C)CC)[C@@H](C)CC)C(=O)N[C@@H](CCC(=O)O)C(=O)N[C@@H](CCC(N)=O)C(N)=O [Compound 4HR] (Ac-WRIQQIEQKIHHIEQRIQQIEQRIQQIEQ-NH2)	99.5	higher than 90 °C	1.3	10.5	~0.2	–	–	–	–	–
I: Ac-WRIQQIEQKIHHIEQRIQQIEQRIQQIEQ-NH2 / II: Ac-WRIQQIEQKIHHIEQRIQQIEQRIQQIEQ-NH2 / III: Ac-WRIQQIEQKIHHIEQRIQQIEQRIQQIEQ-NH2 (amide I:9-III:14, I:14-II:9, II:14-III:9) [(4HR)3]	–	higher than 90 °C	1.5	13.3	almost unbreakable	> 5000	> 10000	> 10000	–	–
I: Ac-WRIQQIEQKIHHIEQRIQQIEQ-NH2 / II: Ac-WRIQQIEQKIHHIEQRIQQIEQ-NH2 / III: Ac-WRIQQIEQKIHHIEQRIQQIEQ-NH2 (amide I:9-III:14, I:14-II:9, II:14-III:9) [(3HR)3]	83.4	higher than 90 °C	1.2	9.2	almost unbreakable	> 5000	> 10000	> 10000	–	–
CC[C@H](C)[C@H](NC(=O)[C@H](CCC(N)=O)NC(=O)[C@H](CCC(N)=O)NC(=O)[C@@H](NC(=O)[C@H](CCCNC(=N)N)NC(=O)[C@H](CCC(N)=O)NC(=O)[C@H](CCC(=O)O)NC(=O)[C@@H](NC(=O)[C@H](Cc1c[nH]cn1)NC(=O)[C@H](Cc1c[nH]cn1)NC(=O)[C@@H](NC(=O)[C@H](CCCCN)NC(=O)[C@H](CCC(N)=O)NC(=O)[C@H](CCC(=O)O)NC(=O)[C@@H](NC(=O)[C@H](CCC(N)=O)NC(=O)[C@H](CCC(N)=O)NC(=O)[C@@H](NC(=O)[C@H](CCCNC(=N)N)NC(=O)[C@H](Cc1c[nH]c2ccccc12)NC(C)=O)[C@@H](C)CC)[C@@H](C)CC)[C@@H](C)CC)[C@@H](C)CC)[C@@H](C)CC)C(=O)N[C@@H](CCC(=O)O)C(=O)N[C@@H](CCC(N)=O)C(N)=O [Compound 3HR] (Ac-WRIQQIEQKIHHIEQRIQQIEQ-NH2)	46.4	44 °C	1.2	9.9	completely lost its tertiary structure	–	–	–	–	–
W RIQQIEQ KI HHIE Q RIQQIEQ RIEAQQH LLQLTVW GIKQLQA RIL (sidechain bridge or staple) [(3HRN23)3]	89.6	> 90 °C	1.6	17.3	–	10.2 ± 0.9	21.3 ± 1.8	58.2 ± 1.5	much more resistant than T20	much more resistant than T20
CC[C@H](C)[C@H](NC(C)=O)C(=O)N[C@@H](CCC(=O)O)C(=O)N[C@@H](C)C(=O)N[C@@H](CCC(N)=O)C(=O)N[C@@H](CCC(N)=O)C(=O)N[C@@H](Cc1c[nH]cn1)C(=O)N[C@@H](CC(C)C)C(=O)N[C@@H](CC(C)C)C(=O)N[C@@H](CCC(N)=O)C(=O)N[C@@H](CC(C)C)C(=O)N[C@H](C(=O)N[C@H](C(=O)N[C@@H](Cc1c[nH]c2ccccc12)C(=O)NCC(=O)N[C@H](C(=O)N[C@@H](CCCCN)C(=O)N[C@@H](CCC(N)=O)C(=O)N[C@@H](CC(C)C)C(=O)N[C@@H](CCC(N)=O)C(=O)N[C@@H](C)C(=O)N[C@@H](CCCNC(=N)N)C(=O)N[C@H](C(=O)N[C@@H](CC(C)C)C(N)=O)[C@@H](C)CC)[C@@H](C)CC)C(C)C)[C@@H](C)O [Compound N23, reference compound] (Ac-IEAQQHLLQLTVWGIKQLQARIL-NH2)	16.8	not detected	–	–	–	> 5000	> 10000	> 10000	–	–
